Test results taken from patent US12358915B2, “METTL3 inhibitory compounds” (STORM THERAPEUTICS LTD., priority 2019, dated 2025).
pIC50: −log10 of the molar value. Where two headings read alike, the source gives them in different places.

What was measured:
METTL3/14 = target: T1, METTL3/14 (Homo sapiens, UniProt Q86U44); assay: METTL3/14 methyltransferase assay (METTL3_14 RFMS, RapidFire mass spectrometry); format: biochemical; conditions: 5 nM METTL3/14, 0.2 μM RNA substrate, 0.5 μM SAM, lower limit of the assay IC50=5 nM, read-out: METTL3_14 RFMS IC50;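 further: recombinant His-tagged METTL3 with FLAG-tagged METTL14 from baculovirus, SAH product quantified by mass spectrometry against isotope-labelled internal standards, 60 min at room temperature, scaled between no-RNA and DMSO-only wells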
T1 construct: The enzyme used was full-length his-tagged METTL3; His; made in house

MOLM-13 cells = assay: MOLM13 CTG - analysis of cell proliferation (Cell Titre Glo); format: cell-based; conditions: Homo sapiens, geometric mean, read-out: CTG MOLM13 cells IC50 GEOMEAN
Experimental: MOLM-13 or MOLM-14 cells were plated, in suspension, in 24 well tissue culture plates at final concentration of 200,000/ml, with or without 50 ng/ml IFNγ. […] Cells were incubated for 4 days at 37° C. at which point 600 μl of cell suspension was removed for Mass spectrometry analysis of m6A. 600 μl of fresh media containing the appropriate concentration of METTL3 inhibitor/IFNγ was added to remaining cell suspensions. Cells where then cultured for a further 7 days, cell suspension was sampled for analysis of proliferation and Cell surface markers periodically.
At regular time points (4, 5, 6 &7) days cells were mixed to maintain a homogenous cell suspension. 25 μl of this cell suspension was removed and added to a white 384 well plate, 25 μl of Cell Titre Glo reagent (Promega) was added, and incubated for 10 mins at room temperature before measurement of luminescence intensity, as per the manufacturers instructions.

T1 sequence (Q86U44 whole entry): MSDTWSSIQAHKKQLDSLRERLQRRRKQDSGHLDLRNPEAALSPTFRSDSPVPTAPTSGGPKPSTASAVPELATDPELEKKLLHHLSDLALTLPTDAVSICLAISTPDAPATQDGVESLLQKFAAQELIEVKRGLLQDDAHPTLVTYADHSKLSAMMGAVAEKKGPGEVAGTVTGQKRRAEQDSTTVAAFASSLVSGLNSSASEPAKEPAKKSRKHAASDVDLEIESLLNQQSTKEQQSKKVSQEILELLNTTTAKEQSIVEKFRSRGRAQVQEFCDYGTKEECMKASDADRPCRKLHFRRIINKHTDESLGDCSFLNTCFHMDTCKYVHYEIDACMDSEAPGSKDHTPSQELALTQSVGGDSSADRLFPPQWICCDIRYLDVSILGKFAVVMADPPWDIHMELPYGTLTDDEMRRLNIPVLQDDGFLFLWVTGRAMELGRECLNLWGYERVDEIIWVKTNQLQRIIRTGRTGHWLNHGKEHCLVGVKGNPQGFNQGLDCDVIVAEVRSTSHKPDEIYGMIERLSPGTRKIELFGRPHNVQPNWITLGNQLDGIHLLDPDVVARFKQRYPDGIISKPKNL
T1 sequence (Q9HCE5 whole entry partner): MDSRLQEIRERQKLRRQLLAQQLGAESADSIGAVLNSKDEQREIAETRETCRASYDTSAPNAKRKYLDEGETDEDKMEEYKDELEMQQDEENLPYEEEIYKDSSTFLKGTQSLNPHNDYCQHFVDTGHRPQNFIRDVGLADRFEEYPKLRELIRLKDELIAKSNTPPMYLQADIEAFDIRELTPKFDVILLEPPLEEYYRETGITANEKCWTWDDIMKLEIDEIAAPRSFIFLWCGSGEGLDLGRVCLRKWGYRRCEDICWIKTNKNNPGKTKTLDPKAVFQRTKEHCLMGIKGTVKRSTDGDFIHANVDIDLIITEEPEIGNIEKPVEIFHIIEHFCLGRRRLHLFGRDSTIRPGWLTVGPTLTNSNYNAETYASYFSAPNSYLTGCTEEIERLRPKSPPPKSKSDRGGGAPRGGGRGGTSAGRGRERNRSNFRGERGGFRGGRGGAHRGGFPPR

Row | pIC50 (METTL3/14; Compounds 63-265) | pIC50 (MOLM-13 cells) | pIC50 (METTL3/14; Compounds 266-351) | Compound
1 | 6.61 | 5.55 | – | CN(Cc1ccc2nc(CNC(=O)c3cc(=O)n4ccccc4n3)cn2c1)CC1CCCCC1 [Compound 114, N-[(6-{[(cyclohexyl-methyl)(methyl)amino]methyl}imidazo [1,2-a]pyridin-2-yl)methyl]-4-oxo-4H-pyrido [1,2-a]pyrimidine-2-carboxamide]
2 | 7.10 | ≤ 4.52 | – | O=C(NCc1cn2cc(CNC3CCC3)ccc2n1)c1cc(=O)n2ccccc2n1 [Compound 126, N-({6-[(cyclobutylamino)methyl]imidazo [1,2-a]pyridin-2-yl}methyl)-4-oxo-4H-pyrido [1,2-a]pyrimidine-2-carboxamide]
3 | 6.37 | ≤ 4.52 | – | CC(C)(C)NCc1ccc2nc(CNC(=O)c3cc(=O)n4ccccc4n3)cn2c1 [Compound 127, N-({6-[(tert-butylamino)methyl]imidazo [1,2-a]pyridin-2-yl}methyl)-4-oxo-4H-pyrido[1,2-a] pyrimidine-2-carboxamide]
4 | 6.68 | 5.00 | – | O=C(NCc1cn2cc(CNCc3ccccc3)ccc2n1)c1cccc2[nH]ncc12 [Compound 178, N-({6-[(benzylamino)methyl]imidazo [1,2-a]pyridin-2-yl}methyl)-1H-indazole-4-carboxamide]
5 | 7.91 | 5.61 | – | CC1(C)CCN(Cc2ccc3nc(CNC(=O)c4cc(=O)n5ccccc5n4)cn3c2)CC1 [Compound 193, N-({6-[(4,4-dimethylpiperidin-1-yl)methyl]imidazo[1,2-a]pyridin-2-yl}methyl)-4-oxo-4H-pyrido[1,2-a]pyrimidine-2-carboxamide]
6 | 7.49 | 5.01 | – | CC(C)(C)C(C)(C)NCc1ccc2nc(CNC(=O)c3cc(=O)n4ccccc4n3)cn2c1 [Compound 195, 4-oxo-N-[(6-{[(2,3,3-trimethylbutan-2-yl)amino]methyl}imidazo [1,2-a]pyridin-2-yl)methyl]-4H-pyrido[1,2-a]pyrimidine-2-carboxamide]
7 | 7.49 | 5.06 | – | CC(NCc1ccc2nc(CNC(=O)c3cc(=O)n4ccccc4n3)cn2c1)C1CCCCC1 (stereo not shown) [Compound 203, N-[(6-{[(1-cyclohexylethyl)amino]methyl}imidazo[1,2-a]pyridin-2-yl)methyl]-4-oxo-4H-pyrido [1,2-a]pyrimidine-2-carboxamide]
8 | 7.81 | 5.04 | – | O=C(NCc1cn2cc(CNCC3(F)CCC3)ccc2n1)c1cc(=O)n2ccccc2n1 [Compound 206, N-{[6-({[(1-fluorocyclobutyl)methyl]amino}methyl)imidazo [1,2-a]pyridin-2-yl]methyl}-4-oxo-4H-pyrido [1,2-a]pyrimidine-2-carboxamide]
9 | 7.42 | 4.99 | – | CC1(F)CCN(Cc2ccc3nc(CNC(=O)c4cc(=O)n5ccccc5n4)cn3c2)CC1 [Compound 207, N-({6-[(4-fluoro-4-methylpiperidin-1-yl)methyl]imidazo[1,2-a]pyridin-2-yl}methyl)-4-oxo-4H-pyrido [1,2-a]pyrimidine-2-carboxamide]
10 | 8.00 | 5.18 | – | O=C(NCc1cn2cc(CNCC3(O)CCCCC3)ccc2n1)c1cc(=O)n2ccccc2n1 [Compound 209, N-{[6-({[(1-hydroxycyclohexyl)methyl]amino}methyl)imidazo [1,2-a]pyridin-2-yl]methyl}-4-oxo-4H-pyrido [1,2-a]pyrimidine-2-carboxamide]
11 | 7.69 | 5.30 | – | O=C(NCc1cn2cc(CNCC3CCCC3)ccc2n1)c1cc(=O)n2ccccc2n1 [Compound 210, N-[(6-{[(cyclopentyl-methyl)amino]methyl}imidazo [1,2-a]pyridin-2-yl)methyl]-4-oxo-4H-pyrido [1,2-a]pyrimidine-2-carboxamide]
12 | 7.71 | 4.94 | – | O=C(NCc1cn2cc(CNCC3CCC(F)(F)C3)ccc2n1)c1cc(=O)n2ccccc2n1 (stereo not shown) [Compound 211, N-{[6-({[(3,3-difluorocyclopentyl)methyl]amino}methyl)imidazo [1,2-a]pyridin-2-yl]methyl}-4-oxo-4H-pyrido[1,2-a]pyrimidine-2-carboxamide]
13 | 7.38 | ≤ 4.52 | – | O=C(NCc1cn2cc(CNCCC3CC(F)(F)C3)ccc2n1)c1cc(=O)n2ccccc2n1 [Compound 213, N-{[6-({[2-(3,3-difluorocyclo-butyl)ethyl]amino}methyl)imidazo[1,2-a]pyridin-2-yl]methyl}-4-oxo-4H-pyrido [1,2-a]pyrimidine-2-carboxamide]
14 | 7.80 | 5.13 | – | O=C(NCc1cn2cc(CNCC3CCC3F)ccc2n1)c1cc(=O)n2ccccc2n1 (stereo not shown) [Compound 214, N-{[6-({[(2-fluorocyclobutyl)methyl]amino}methyl)imidazo [1,2-a]pyridin-2-yl]methyl}-4-oxo-4H-pyrido [1,2-a]pyrimidine-2-carboxamide]
15 | 7.83 | 5.45 | – | O=C(NCc1cn2cc(CN3CCC4(CC3)CC4)ccc2n1)c1cc(=O)n2ccccc2n1 [Compound 216, N-{[6-({6-azaspiro[2.5]octan-6-yl}methyl)imidazo [1,2-a]pyridin-2-yl]methyl}-4-oxo-4H-pyrido [1,2-a]pyrimidine-2-carboxamide]
16 | 8.12 | 5.53 | – | O=C(NCc1cn2cc(CNC[C@H]3C[C@H](F)C3)ccc2n1)c1cc(=O)n2ccccc2n1 [Compound 217, 4-oxo-N-({6-[({[(1r,3r)-3-fluorocyclo-butyl]methyl}amino)methyl]imidazo[1,2-a]pyridin-2-yl}methyl)-4H-pyrido[1,2-a] pyrimidine-2-carboxamide]
17 | 7.58 | 5.33 | – | O=C(NCc1cn2cc(CNCCC3CC3)ccc2n1)c1cc(=O)c2ccccc2o1 [Compound 218]
18 | 6.95 | ≤ 4.52 | – | O=C(NCc1cn2cc(CCNCc3ccccc3)ccc2n1)c1cc(=O)n2ccccc2n1 [Compound 235, N-({6-[2-(benzylamino)ethyl]imidazo[1,2-a]pyridin-2-yl}methyl)-4-oxo-4H-pyrido[1,2-a]pyrimidine-2-carboxamide]
19 | 7.54 | 4.93 | – | O=C(NCc1cn2cc(CCNC3CCCCC3)ccc2n1)c1cc(=O)n2ccccc2n1 [Compound 236, N-({6-[2-(cyclohexylamino)ethyl]imidazo[1,2-a]pyridin-2-yl}methyl)-4-oxo-4H-pyrido[1,2-a]pyrimidine-2-carboxamide]
20 | 6.13 | 4.89 | – | O=C(NCc1ccc2nc(CNC(=O)c3cc(=O)n4ccccc4n3)cn2c1)c1ccccc1 [Compound 237, 4-oxo-N-({6-[(phenylformamido)methyl]imidazo[1,2-a]pyridin-2-yl}methyl)-4H-pyrido[1,2-a]pyrimidine-2-carboxamide]
21 | 7.90 | 5.72 | – | c1cc(-c2cn(Cc3cn4cc(CNCC5CCCCC5)ccc4n3)nn2)c2cn[nH]c2c1 [Compound 248, (cyclohexylmethyl)[(2-{[4-(1H-indazol-4-yl)-1H-1,2,3-triazol-1-yl]methyl}imidazo[1,2-a]pyridin-6-yl)methyl]amine]
22 | – | 5.04 | 7.56 | COC1(CNCc2ccc3nc(CNC(=O)c4cc(=O)n5ccccc5n4)cn3c2)CCC1 [Compound 273, N-[[6-[[(1-methoxycyclobutyl)methylamino]methyl]imidazo[1,2-a]pyridin-2-yl]methyl]-4-oxo-pyrido[1,2-a]pyrimidine-2-carboxamide]
23 | – | ≤ 4.52 | 7.56 | O=C(NCc1cn2cc(CNCC3CC4(CC4)C3)ccc2n1)c1cc(=O)n2ccccc2n1 [Compound 278, 4-oxo-N-[[6-[(spiro[2.3]hexan-5-ylmethylamino)methyl]imidazo[1,2-a]pyridin-2-yl]methyl]pyrido[1,2-a]pyrimidine-2-carboxamide]
24 | – | 5.35 | 7.88 | O=C(NCc1cn2cc(CNC3CC34CCC4)ccc2n1)c1cc(=O)n2ccccc2n1 (stereo not shown) [Compound 280, 4-oxo-N-[[6-[(spiro[2.3]hexan-2-ylamino)methyl]imidazo[1,2-a]pyridin-2-yl]methyl]pyrido[1,2-a]pyrimidine-2-carboxamide]
25 | – | ≤ 4.52 | 7.01 | COC(C)(C)CNCc1ccc2nc(CNC(=O)c3cc(=O)n4ccccc4n3)cn2c1 [Compound 281, N-[[6-[[(2-methoxy-2-methyl-propyl)amino]methyl]imidazo[1,2-a]pyridin-2-yl]methyl]-4-oxo-pyrido[1,2-a]pyrimidine-2-carboxamide]
26 | – | 5.47 | 7.97 | CC1(CNCc2ccc3nc(CNC(=O)c4cc(=O)n5ccccc5n4)cn3c2)CCC1 [Compound 282, N-[[6-[[(1-methylcyclobutyl)methylamino]methyl]imidazo[1,2-a]pyridin-2-yl]methyl]-4-oxo-pyrido[1,2-a]pyrimidine-2-carboxamide]
27 | – | 4.97 | 7.53 | CCCCNCc1ccc2nc(CNC(=O)c3cc(=O)n4ccccc4n3)cn2c1 [Compound 283, N-[[6-(butylaminomethyl)imidazo[1,2-a]pyridin-2-yl]methyl]-4-oxo-pyrido[1,2-a]pyrimidine-2-carboxamide]
28 | – | 5.13 | 7.94 | O=C(NCc1cn2cc(CNCC3(O)CCCC3)ccc2n1)c1cc(=O)n2ccccc2n1 [Compound 284, N-[[6-[[(1-hydroxycyclopentyl)methylamino]methyl]imidazo[1,2-a]pyridin-2-yl]methyl]-4-oxo-pyrido[1,2-a]pyrimidine-2-carboxamide]
29 | – | 5.13 | 7.82 | CCC(C)CNCc1ccc2nc(CNC(=O)c3cc(=O)n4ccccc4n3)cn2c1 (stereo not shown) [Compound 285, N-[[6-[(2-methylbutylamino)methyl]imidazo[1,2-a]pyridin-2-yl]methyl]-4-oxo-pyrido[1,2-a]pyrimidine-2-carboxamide]
